Data: PubChem BioAssay AID1963960 (Molecular Pharmacology Branch, DTP, NCI, 2024)

System: MDA-MB-468 spheroids with HUVEC/MSC, viability
Assay: Anticancer human tumor MDA-MB-468 cell line growth inhibition [PI3K];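 further: spheroids exposed to agents for seven days before readout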;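 on viability, T/C: 100% = DMSO vehicle control viability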
Details: for IC50: curve of first compound; for viability, T/C: stronger effect = lower value
How it was run: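 Tumor cells were combined with HUVEC and MSCs into spheroids, then dosed with PI3K-inhibitor combinations over half-log ranges capped near clinical Cmax or 10 microM.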

CNC(=O)c1ccc(N2C(=S)N(c3ccc(C#N)c(C(F)(F)F)c3)C(=O)C2(C)C)cc1F + CC(Nc1ncnc2nc[nH]c12)c1cc2cccc(Cl)c2c(=O)n1-c1ccccc1
IC50 (second compound 0.0316 µM): > 10 µM | IC50 (second compound 0.1 µM): > 10 µM | IC50 (second compound 0.316 µM): > 10 µM | IC50 (second compound 1 µM): > 10 µM | IC50 (second compound 3.16 µM): 7.73 µM | IC50 (second compound 10 µM): < 0.0316 µM | viability, T/C (second compound 0.0316 µM, first compound 0.0316 µM): 78.9% | viability, T/C (second compound 0.0316 µM, first compound 0.1 µM): 80% | viability, T/C (second compound 0.0316 µM, first compound 0.316 µM): 77.2% | viability, T/C (second compound 0.0316 µM, first compound 1 µM): 90.6% | viability, T/C (second compound 0.0316 µM, first compound 3.16 µM): 89.7% | viability, T/C (second compound 0.0316 µM, first compound 10 µM): 73.1% | viability, T/C (second compound 0.1 µM, first compound 0.0316 µM): 88% | viability, T/C (second compound 0.1 µM, first compound 0.1 µM): 79.8% | viability, T/C (second compound 0.1 µM, first compound 0.316 µM): 73.4% | viability, T/C (second compound 0.1 µM, first compound 1 µM): 91.3% | viability, T/C (second compound 0.1 µM, first compound 3.16 µM): 81.1% | viability, T/C (second compound 0.1 µM, first compound 10 µM): 63.4% | viability, T/C (second compound 0.316 µM, first compound 0.0316 µM): 72% | viability, T/C (second compound 0.316 µM, first compound 0.1 µM): 72.5% | viability, T/C (second compound 0.316 µM, first compound 0.316 µM): 71.5% | viability, T/C (second compound 0.316 µM, first compound 1 µM): 77% | viability, T/C (second compound 0.316 µM, first compound 3.16 µM): 70.7% | viability, T/C (second compound 0.316 µM, first compound 10 µM): 61.1% | viability, T/C (second compound 1 µM, first compound 0.0316 µM): 58.2% | viability, T/C (second compound 1 µM, first compound 0.1 µM): 64.5% | viability, T/C (second compound 1 µM, first compound 0.316 µM): 67.4% | viability, T/C (second compound 1 µM, first compound 1 µM): 75% | viability, T/C (second compound 1 µM, first compound 3.16 µM): 55.5% | viability, T/C (second compound 1 µM, first compound 10 µM): 56.3% | viability, T/C (second compound 3.16 µM, first compound 0.0316 µM): 52.6% | viability, T/C (second compound 3.16 µM, first compound 0.1 µM): 56.3% | viability, T/C (second compound 3.16 µM, first compound 0.316 µM): 53.4% | viability, T/C (second compound 3.16 µM, first compound 1 µM): 57.1% | viability, T/C (second compound 3.16 µM, first compound 3.16 µM): 56.8% | viability, T/C (second compound 3.16 µM, first compound 10 µM): 42.1% | viability, T/C (second compound 10 µM, first compound 0.0316 µM): 40.1% | viability, T/C (second compound 10 µM, first compound 0.1 µM): 35.8% | viability, T/C (second compound 10 µM, first compound 0.316 µM): 36.1% | viability, T/C (second compound 10 µM, first compound 1 µM): 38% | viability, T/C (second compound 10 µM, first compound 3.16 µM): 35.7% | viability, T/C (second compound 10 µM, first compound 10 µM): 26.9%

Cn1cnc2c(F)c(Nc3ccc(Br)cc3Cl)c(C(=O)NOCCO)cc21 + CC(Nc1ncnc2nc[nH]c12)c1cc2cccc(Cl)c2c(=O)n1-c1ccccc1
IC50 (second compound 0.0316 µM): > 3 µM | IC50 (second compound 0.1 µM): > 3 µM | IC50 (second compound 0.316 µM): > 3 µM | IC50 (second compound 1 µM): > 3 µM | IC50 (second compound 3.16 µM): 1.96 µM | IC50 (second compound 10 µM): < 0.00949 µM | viability, T/C (second compound 0.0316 µM, first compound 0.00949 µM): 88.8% | viability, T/C (second compound 0.0316 µM, first compound 0.03 µM): 90% | viability, T/C (second compound 0.0316 µM, first compound 0.0949 µM): 82.5% | viability, T/C (second compound 0.0316 µM, first compound 0.3 µM): 92.8% | viability, T/C (second compound 0.0316 µM, first compound 0.949 µM): 81.8% | viability, T/C (second compound 0.0316 µM, first compound 3 µM): 57.5% | viability, T/C (second compound 0.1 µM, first compound 0.00949 µM): 77% | viability, T/C (second compound 0.1 µM, first compound 0.03 µM): 86.9% | viability, T/C (second compound 0.1 µM, first compound 0.0949 µM): 101% | viability, T/C (second compound 0.1 µM, first compound 0.3 µM): 89.1% | viability, T/C (second compound 0.1 µM, first compound 0.949 µM): 86.1% | viability, T/C (second compound 0.1 µM, first compound 3 µM): 58.4% | viability, T/C (second compound 0.316 µM, first compound 0.00949 µM): 85.2% | viability, T/C (second compound 0.316 µM, first compound 0.03 µM): 83.8% | viability, T/C (second compound 0.316 µM, first compound 0.0949 µM): 75.6% | viability, T/C (second compound 0.316 µM, first compound 0.3 µM): 92.5% | viability, T/C (second compound 0.316 µM, first compound 0.949 µM): 90.3% | viability, T/C (second compound 0.316 µM, first compound 3 µM): 60.7% | viability, T/C (second compound 1 µM, first compound 0.00949 µM): 63.4% | viability, T/C (second compound 1 µM, first compound 0.03 µM): 66.1% | viability, T/C (second compound 1 µM, first compound 0.0949 µM): 76% | viability, T/C (second compound 1 µM, first compound 0.3 µM): 73.9% | viability, T/C (second compound 1 µM, first compound 0.949 µM): 67.6% | viability, T/C (second compound 1 µM, first compound 3 µM): 58.8% | viability, T/C (second compound 3.16 µM, first compound 0.00949 µM): 58.2% | viability, T/C (second compound 3.16 µM, first compound 0.03 µM): 58.5% | viability, T/C (second compound 3.16 µM, first compound 0.0949 µM): 55.8% | viability, T/C (second compound 3.16 µM, first compound 0.3 µM): 54.3% | viability, T/C (second compound 3.16 µM, first compound 0.949 µM): 66% | viability, T/C (second compound 3.16 µM, first compound 3 µM): 37.2% | viability, T/C (second compound 10 µM, first compound 0.00949 µM): 43.3% | viability, T/C (second compound 10 µM, first compound 0.03 µM): 41.2% | viability, T/C (second compound 10 µM, first compound 0.0949 µM): 37.6% | viability, T/C (second compound 10 µM, first compound 0.3 µM): 35.6% | viability, T/C (second compound 10 µM, first compound 0.949 µM): 29.4% | viability, T/C (second compound 10 µM, first compound 3 µM): 16.4%
